{"source": "patent US11702403B2", "about": "“EAAT2 activators and methods of using thereof” (OHIO STATE INNOVATION FOUNDATION, priority 2018, dated 2023)", "key": {"[1]": {"system": "human EAAT2", "assay": "EAAT2 protein levels in PA-EAAT2 cells by Western blot", "format": "cell-based", "conditions": "PA-EAAT2 cells, 24 hr; for Fold increase for EAAT2 at indicated concentration (maximum activity): EAAT2 protein relative to DMSO; for concentration that reaches maximum activity: tested 0.0375-10 μM", "experimental": "Compounds were evaluated in PA-EAAT2 cells, a primary astrocyte stably expressing human EAAT2 mRNAs (Kong et al., J Clin Invest. 2014:1255-67). Cells were treated with compound at 0.0375, 0.075, 0.15, 0.3, 0.6, 1.25, 2.5, 5, 10 μM for 24 hr and then harvested for measuring EAAT2 protein levels by Western blot analysis."}, "[2]": {"system": "CA3-CA1 LTP in the hippocampus", "assay": "Long-term potentiation (LTP) in acute hippocampal slices of treated wild-type mice", "format": "in vivo", "conditions": "0.033, 0.33, and 3.3 mg/kg for seven days, vs vehicle", "experimental": "Mice were treated with compound at 40 mg/kg (or as depicted) and forebrains were harvested for the gliosome preparation 24 hr (or as described) post-treatment. FIG. 2A: Western blots show dose-dependent increase of EAAT2 protein levels. FIG. 2B: Time-dependent fold increase in EAAT2 protein expression in response to compound treatment at 4 hours (1.54±0.13) and 24 hours (1.98±0.19) post-treatment. Quantification of EAAT2 expression time course (normalized to flotilin; n=4/group). Data represented as mean SEM and analyzed using one-way ANOVA with Tukey post-hoc test. *p<0.05, **p<0.01. FIG. 2C: Compound treatment enhances CA3-CA1 LTP in the hippocampus. Mice were treated with vehicle or compound for seven days and acute hippocampal sections were collected for LTP recordings. […] Data represented as mean SEM analyzed using one-way ANOVA with Bonferroni post-hoc tests. […]\nAt 24 hours post-treatment, mice were euthanized and forbrains were harvested. […] Acute hippocampal slices were then collected and assessed for changes in long-term potentiation (LTP).\nWild-type C57BL/6 mice (2-3 months old) were treated orally with compound 101 at 0.01, 0.033, 0.1, 0.33, 1, 3.33, 10, 20, 40, 60, and 100 mg/kg/day (voluntary ingestion of compound in honey) for seven or 28 days. […] Mice were then euthanized and acute hippocampal slices were collected and assessed for changes in long-term potentiation (LTP)."}, "[3]": {"system": "EAAT2", "assay": "EAAT2 protein levels in brains of wild-type C57BL/6 mice by Western blot", "format": "in vivo", "conditions": "oral 0.01-100 mg/kg/day for seven or 28 days", "experimental": "Mice then were euthanized and brains were harvested for examining EAAT2 protein levels by Western blot analysis.\nWild-type C57BL/6 mice (2-3 months old) were treated orally with compound 101 at 0.01, 0.033, 0.1, 0.33, 1, 3.33, 10, 20, 40, 60, and 100 mg/kg/day (voluntary ingestion of compound in honey) for seven or 28 days. Mice then were euthanized and brains were harvested for examining EAAT2 protein levels by Western blot analysis. […] To determine the functional consequences of the increased EAAT2 to the synaptic plasticity, wild-type mice were treated with vehicle or compound 101 at 0.033, 0.33, and 3.3 mg/kg for seven days. Mice were then euthanized and acute hippocampal slices were collected and assessed for changes in long-term potentiation (LTP)."}}, "note": "Structures can show the parent of a compound that is named as a salt."}
{"molecule": "CNCCn1nc(-c2ccccn2)ccc1=O", "note": "[Compound 101, 2-(2-(Methylamino)ethyl)-6-(pyridin-2-yl)pyridazin-3(2H)-one hydrochloride]", "values": [{"measurement": "Fold increase for EAAT2 at indicated concentration (maximum activity)", "setting": "[1]", "value": "2.6 ± 0.2", "unit": "fold"}, {"measurement": "concentration that reaches maximum activity", "setting": "[1]", "value": 0.3, "unit": "µM"}, {"measurement": "CA1 field potential responses to stimulation of CA3 afferents (LTP)", "setting": "[2]", "value": "significantly increased responses"}, {"measurement": "EAAT2 protein levels in mouse brains", "setting": "[3]", "value": "dose-dependently increased"}]}
{"molecule": "NCCn1nc(-c2ccccn2)ccc1=O", "note": "[Compound 102, 2-(2-Aminoethyl)-6-(pyridin-2-yl)pyridazin-3(2H)-one hydrochloride]", "values": [{"measurement": "Fold increase for EAAT2 at indicated concentration (maximum activity)", "setting": "[1]", "value": "2.8 ± 0.3", "unit": "fold"}, {"measurement": "concentration that reaches maximum activity", "setting": "[1]", "value": 1.25, "unit": "µM"}]}
{"molecule": "CN(CCn1nc(-c2ccccn2)ccc1=O)c1ccccc1", "note": "[Compound 110, 2-(2-(Methyl(phenyl)amino)ethyl)-6-(pyridin-2-yl)pyridazin-3(2H)-one]", "values": [{"measurement": "Fold increase for EAAT2 at indicated concentration (maximum activity)", "setting": "[1]", "value": "2.3 ± 0.3", "unit": "fold"}, {"measurement": "concentration that reaches maximum activity", "setting": "[1]", "value": 0.6, "unit": "µM"}]}
{"molecule": "CNC(=O)CCn1nc(-c2ccccn2)ccc1=O", "note": "[Compound 123, N-Methyl-3-(6-oxo-3-(pyridin-2-yl)pyridazin-1(6H)-yl)propanamide]", "values": [{"measurement": "Fold increase for EAAT2 at indicated concentration (maximum activity)", "setting": "[1]", "value": "2.5 ± 0.2", "unit": "fold"}, {"measurement": "concentration that reaches maximum activity", "setting": "[1]", "value": 0.3, "unit": "µM"}]}
{"molecule": "O=c1ccc(-c2ccccn2)nn1CCN1CCOCC1", "note": "[Compound 126, 2-(2-Morpholinoethyl)-6-(pyridin-2-yl)pyridazin-3(2H)-one hydrochloride]", "values": [{"measurement": "Fold increase for EAAT2 at indicated concentration (maximum activity)", "setting": "[1]", "value": "2.2 ± 0.5", "unit": "fold"}, {"measurement": "concentration that reaches maximum activity", "setting": "[1]", "value": 0.3, "unit": "µM"}]}
{"molecule": "O=C1CCCN1CCn1nc(-c2ccccn2)ccc1=O", "note": "[Compound 133, 2-(2-(2-Oxopyrrolidin-1-yl)ethyl)-6-(pyridin-2-yl)pyridazin-3(2H)-one]", "values": [{"measurement": "Fold increase for EAAT2 at indicated concentration (maximum activity)", "setting": "[1]", "value": "1.9 ± 0.3", "unit": "fold"}, {"measurement": "concentration that reaches maximum activity", "setting": "[1]", "value": 2.5, "unit": "µM"}]}
{"molecule": "O=c1ccc(-c2ccccn2)nn1Cc1ncco1", "note": "[Compound 146, 2-(Oxazol-2-ylmethyl)-6-(pyridin-2-yl)pyridazin-3(2H)-one]", "values": [{"measurement": "Fold increase for EAAT2 at indicated concentration (maximum activity)", "setting": "[1]", "value": "2.6 ± 0.2", "unit": "fold"}, {"measurement": "concentration that reaches maximum activity", "setting": "[1]", "value": 2.5, "unit": "µM"}]}
{"molecule": "CN(C)CCCn1nc(-c2ccccn2)ccc1=O", "note": "[Compound 166, 2-(3-(Dimethylamino)propyl)-6-(pyridin-2-yl)pyridazin-3(2H)-one hydrochloride]", "values": [{"measurement": "Fold increase for EAAT2 at indicated concentration (maximum activity)", "setting": "[1]", "value": "2.0 ± 0.2", "unit": "fold"}, {"measurement": "concentration that reaches maximum activity", "setting": "[1]", "value": 0.3, "unit": "µM"}]}
{"molecule": "COCCn1nc(-c2ccccn2)ccc1=O", "note": "[Compound 172, 2-(2-Methoxyethyl)-6-(pyridin-2-yl)pyridazin-3(2H)-one]", "values": [{"measurement": "Fold increase for EAAT2 at indicated concentration (maximum activity)", "setting": "[1]", "value": "2.9 ± 0.1", "unit": "fold"}, {"measurement": "concentration that reaches maximum activity", "setting": "[1]", "value": 0.3, "unit": "µM"}]}
{"molecule": "Cc1cc(-c2ccccn2)nn(CCN(C)C)c1=O", "note": "[Compound 195, 2-(2-(Dimethylamino)ethyl)-4-methyl-6-(pyridin-2-yl)pyridazin-3(2H)-one hydrochloride]", "values": [{"measurement": "Fold increase for EAAT2 at indicated concentration (maximum activity)", "setting": "[1]", "value": "2.5 ± 0.2", "unit": "fold"}, {"measurement": "concentration that reaches maximum activity", "setting": "[1]", "value": 0.3, "unit": "µM"}]}
{"molecule": "Cc1cc(=O)n(CCN(C)C)nc1-c1ccccn1", "note": "[Compound 196, N,N-2-(2-(dimethylamino)ethyl)-5-methyl-6-(pyridin-2-yl)pyridazin-3(2H)-one hydrochloride]", "values": [{"measurement": "Fold increase for EAAT2 at indicated concentration (maximum activity)", "setting": "[1]", "value": "4.2 ± 0.2", "unit": "fold"}, {"measurement": "concentration that reaches maximum activity", "setting": "[1]", "value": 0.6, "unit": "µM"}]}
{"molecule": "CC(c1ccccn1)n1nc(-c2ccccn2)ccc1=O", "note": "(stereo not shown) [Compound 198, 6-(Pyridin-2-yl)-2-(1-(pyridin-2-yl)ethyl)pyridazin-3(2H)-one]", "values": [{"measurement": "Fold increase for EAAT2 at indicated concentration (maximum activity)", "setting": "[1]", "value": "2.0 ± 0.3", "unit": "fold"}, {"measurement": "concentration that reaches maximum activity", "setting": "[1]", "value": 0.15, "unit": "µM"}]}
{"molecule": "Cn1ccnc1Cn1nc(-c2ccccn2)ccc1=O", "note": "[Compound 201]", "values": [{"measurement": "Fold increase for EAAT2 at indicated concentration (maximum activity)", "setting": "[1]", "value": "2.5 ± 0.4", "unit": "fold"}, {"measurement": "concentration that reaches maximum activity", "setting": "[1]", "value": 0.6, "unit": "µM"}]}
{"molecule": "CN(C)CCOc1ccccc1NC(=O)Cn1nc(-c2ccccn2)ccc1=O", "note": "[Compound 203, N-(2-(2-(Dimethylamino)ethoxy)phenyl)-2-(6-oxo-3-(pyridin-2-yl)pyridazin-1(6H)-yl)acetamide]", "values": [{"measurement": "Fold increase for EAAT2 at indicated concentration (maximum activity)", "setting": "[1]", "value": "2.0 ± 0.2", "unit": "fold"}, {"measurement": "concentration that reaches maximum activity", "setting": "[1]", "value": 0.6, "unit": "µM"}]}
{"molecule": "COc1ccccc1-c1ccc(=O)n(CCN(C)C)n1", "note": "[Compound 206, 2-(2-(Dimethylamino)ethyl)-6-(2-methoxyphenyl)pyridazin-3(2H)-one hydrochloride]", "values": [{"measurement": "Fold increase for EAAT2 at indicated concentration (maximum activity)", "setting": "[1]", "value": "2.4 ± 0.1", "unit": "fold"}, {"measurement": "concentration that reaches maximum activity", "setting": "[1]", "value": 0.15, "unit": "µM"}]}
{"molecule": "COc1cccc(-c2ccc(=O)n(CCN(C)C)n2)c1", "note": "[Compound 207, 2-(2-(Dimethylamino)ethyl)-6-(3-methoxyphenyl)pyridazin-3(2H)-one hydrochloride]", "values": [{"measurement": "Fold increase for EAAT2 at indicated concentration (maximum activity)", "setting": "[1]", "value": "3.5 ± 0.3", "unit": "fold"}, {"measurement": "concentration that reaches maximum activity", "setting": "[1]", "value": 0.15, "unit": "µM"}]}
{"molecule": "COc1ccc(-c2ccc(=O)n(CCN(C)C)n2)cc1", "note": "[Compound 208, 2-(2-(Dimethylamino)ethyl)-6-(4-methoxyphenyl)pyridazin-3(2H)-one hydrochloride]", "values": [{"measurement": "Fold increase for EAAT2 at indicated concentration (maximum activity)", "setting": "[1]", "value": "1.7 ± 0.2", "unit": "fold"}, {"measurement": "concentration that reaches maximum activity", "setting": "[1]", "value": 0.3, "unit": "µM"}]}
{"molecule": "CN(C)CCn1cc(-c2ccccn2)ccc1=O", "note": "[Compound 213, 1′-(2-(Dimethylamino)ethyl)-[2,3′-bipyridin]-6′(1′H)-one hydrochloride]", "values": [{"measurement": "Fold increase for EAAT2 at indicated concentration (maximum activity)", "setting": "[1]", "value": "2.3 ± 0.1", "unit": "fold"}, {"measurement": "concentration that reaches maximum activity", "setting": "[1]", "value": 0.6, "unit": "µM"}]}
{"molecule": "CN(C)CCn1cc(-c2ccccn2)ncc1=O", "note": "[Compound 214, 1-(2-(Dimethylamino)ethyl)-5-(pyridin-2-yl)pyrazin-2(1H)-one hydrochloride]", "values": [{"measurement": "Fold increase for EAAT2 at indicated concentration (maximum activity)", "setting": "[1]", "value": "1.5 ± 0.1", "unit": "fold"}, {"measurement": "concentration that reaches maximum activity", "setting": "[1]", "value": 2.5, "unit": "µM"}]}
